Source: US7977387B2, “Aminobenzophenone compounds” (Leo Pharma A/S, priority 2003, dated 2011)

Assays:
IL-1β = experiment: Inhibition of IL-1β secretion in LPS stimulated peripheral blood mononuclear cells; format: cell-based; details: PBMC; LPS stimulated human peripheral blood mononuclear cells, 18 hours, ELISA; read-out: The median inhibition concentration (IC50, nM) of IL-1β
Description: (§1) To study the effect of compounds of the present invention in vitro, the inhibition of IL-1β and TNF-α secretion was determined using the following procedure:
(§2) Cytokine production was measured in the media from lipopolysaccharide (LPS) stimulated peripheral blood mononuclear cells. The mononuclear cells were isolated from human peripheral blood by Lymphoprep® (Nycomed, Norway) fractionation and suspended in RPMI 1640 (growth medium) with foetal calf serum (FCS, 2%), at a concentration of 5×10^5 cells/ml. The cells were incubated in 24-well tissue culture plates in 1 ml aliquots. Test compounds were dissolved in dimethylsulfoxide (DMSO, 10 mM) and were diluted with the medium. Compounds were added to the cells for 30 minutes, then LPS ([…] final concentration) was added. The plates were incubated for 18 hours, and the concentration of IL-β and TNF-α in the medium was determined by enzyme-linked immunosorbent assays. The median inhibitory concentrations (IC50) of the compounds were calculated.

TNF-α = experiment: Inhibition of TNF-α secretion in LPS stimulated peripheral blood mononuclear cells; format: cell-based; details: PBMC; LPS stimulated human peripheral blood mononuclear cells, 18 hours, ELISA; read-out: The median inhibition concentration (IC50, nM) of TNF-α
Description: as §1, §2

SMILES	IC50 (IL-1β) [nM]	IC50 (TNF-α) [nM]
Cc1cc(F)ccc1Nc1ccc(C(=O)c2cc(C(=O)NCCCN3CCOCC3)ccc2C)c(Cl)c1 [Compound 107, 3-[2-Chloro-4-(4-fluoro-2-methylphenylamino)benzoyl]-4-methyl-N-(3-morpholin-4-yl-propyl)benzamide]	3.2	3.2
Cc1cc(F)ccc1Nc1ccc(C(=O)c2cc(C(=O)NCc3ccncc3)ccc2C)c(Cl)c1 [Compound 109]	4	3.2
Cc1ccc(C(=O)NCCCO)cc1C(=O)c1ccc(Nc2ccccc2N)cc1Cl [Compound 118, 3-[4-(2-Aminophenylamino)-2-chlorobenzoyl]-N-(3-hydroxypropyl)-4-methylbenzamide]	2.2	2
Cc1cc(F)ccc1Nc1ccc(C(=O)c2cc(C(=O)NCCO)ccc2C)c(Cl)c1 [Compound 119, 3-[2-Chloro-4-(4-fluoro-2-methylphenylamino)benzoyl]-N-(2-hydroxyethyl)-4-methylbenzamide]	1.3	0.4
CNC(=O)c1ccc(C)c(C(=O)c2ccc(Nc3ccc(Cl)cc3F)cc2Cl)c1 [Compound 121, 3-[2-Chloro-4-(4-chloro-2-fluoro-phenylamino)-benzoyl]-4,N-dimethyl-benzamide]	2.8	0.6
COc1ccc(C(=O)NCC(O)CO)cc1C(=O)c1ccc(Nc2ccc(F)cc2F)cc1Cl (centres unmarked) [Compound 143, 3-[2-Chloro-4-(2,4-difluoro-phenylamino)-benzoyl]-N-(2,3-dihydroxy-propyl)-4-methoxy-benzamide]	2.5	1.6
COc1ccc(C(=O)NCC(N)=O)cc1C(=O)c1ccc(Nc2ccc(F)cc2F)cc1Cl [Compound 144, N-Carbamoylmethyl-3-[2-chloro-4-(2,4-difluoro-phenylamino)-benzoyl]-4-methoxy-benzamide]	1	0.6
Cc1ccc(C(=O)NCC(F)(F)C(F)(F)F)cc1C(=O)c1ccc(Nc2ccc(F)cc2F)cc1Cl [Compound 154, 3-[2-Chloro-4-(2,4-difluoro-phenylamino)-benzoyl]-4-methyl-N-(2,2,3,3,3-pentafluoro-propyl)-benzamide]	3.2	2.5
COC(=O)CCC(=O)CNC(=O)c1ccc(C)c(C(=O)c2ccc(Nc3ccc(F)cc3F)cc2Cl)c1 [Compound 167, 5-{3-[2-chloro-4-(2,4-difluoro-phenylamino)-benzoyl]-4-methyl-benzoylamino}-4-oxo-pentanoic acid methyl ester]	1.7	2
Cc1ccc(C(=O)NCC(=O)NCCC(N)=O)cc1C(=O)c1ccc(Nc2ccc(F)cc2F)cc1Cl [Compound 168, N-[(2-Carbamoyl-ethylcarbamoyl)-methyl]-3-[2-chloro-4-(2,4-difluoro-phenylamino)-benzoyl]-4-methyl-benzamide]	2.5	2.5
CCOC(=O)CNC(=O)CNC(=O)c1ccc(C)c(C(=O)c2ccc(Nc3ccc(F)cc3F)cc2Cl)c1 [Compound 169, (2-{3-[2-Chloro-4-(2,4-difluoro-phenylamino)-benzoyl]-4-methyl-benzoylamino}-acetylamino)-acetic acid ethyl ester]	0.4	0.4
CCOC(=O)CNC(=O)c1ccc(OC)c(C(=O)c2ccc(Nc3c(F)cccc3F)cc2Cl)c1 [Compound 182]	8.9	2.2
CCOC(=O)CNC(=O)CNC(=O)c1ccc(OC)c(C(=O)c2ccc(Nc3c(F)cccc3F)cc2Cl)c1 [Compound 183, (2-{3-[2-Chloro-4-(2,6-difluoro-phenylamino)-benzoyl]-4-methoxy-benzoylamino}-acetylamino)-acetic acid ethyl ester]	2	0.7
Cc1ccc(C(=O)NCCO)cc1C(=O)c1ccc(Nc2ccc(F)cc2)cc1Cl [Compound 190, 3-[2-Chloro-4-(4-fluoro-phenylamino)-benzoyl]-N-(2-hydroxy-ethyl)-4-methyl-benzamide]	0.6	0.3
Cc1ccc(C(=O)NCCO)cc1C(=O)c1ccc(Nc2ccccc2)cc1Cl [Compound 191, 3-(2-Chloro-4-phenylamino-benzoyl)-N-(2-hydroxy-ethyl)-4-methyl-benzamide]	1.1	0.5
Cc1ccc(NC(=O)CCc2ccco2)cc1C(=O)c1ccc(Nc2ccc(F)cc2F)cc1Cl [Compound 246, N-{3-[2-Chloro-4-(2,4-difluoro-phenylamino)-benzoyl]-4-methyl-phenyl}-3-furan-2-yl-propionamide]		3.2
O=C(c1cc(OCCCO)ccc1F)c1ccc(Nc2ccc(F)cc2F)cc1Cl [Compound 314, [2-Chloro-4-(2,4-difluoro-phenylamino)-phenyl]-[2-fluoro-5-(3-hydroxy-propoxy)-phenyl]-methanone]		2.8

More lines, in order of falling IC50 (TNF-α), values ahead:

IC50 (IL-1β) [nM]	IC50 (TNF-α) [nM]	SMILES
2.5	3.2	COc1ccc(C(=O)NC(C)(CO)CO)cc1C(=O)c1ccc(Nc2c(F)cccc2F)cc1Cl [Compound 180, 3-[2-Chloro-4-(2,6-difluoro-phenylamino)-benzoyl]-N-(2-hydroxy-1-hydroxymethyl-1-methyl-ethyl)-4-methoxy-benzamide]
4	2	Cc1ccc(C(=O)N[C@H]2CC[C@@H](O)CC2)cc1C(=O)c1ccc(Nc2ccc(Cl)cc2F)cc1Cl [Compound 135, 3-[2-Chloro-4-(4-chloro-2-fluoro-phenylamino)-benzoyl]-N-cis-(4-hydroxy-cyclohexyl)-4-methyl-benzamide]
4	2	Cc1ccc(C(=O)N[C@H]2CC[C@H](O)CC2)cc1C(=O)c1ccc(Nc2ccc(Cl)cc2F)cc1Cl [Compound 136, 3-[2-Chloro-4-(4-chloro-2-fluoro-phenylamino)-benzoyl]-N-trans-(4-hydroxy-cyclohexyl)-4-methyl-benzamide]
	1.6	Cc1ccc(NC(=O)Nc2cccc(C(F)(F)F)c2)cc1C(=O)c1ccc(Nc2ccc(F)cc2F)cc1Cl [Compound 263, 1-{3-[2-Chloro-4-(2,4-difluoro-phenylamino)-benzoyl]-4-methyl-phenyl}-3-(3-trifluoromethyl-phenyl)-urea]
7.9	1.3	Cc1ccc(C(=O)NCCCCO)cc1C(=O)c1ccc(Nc2ccc(F)cc2F)cc1Cl [Compound 159, 3-[2-Chloro-4-(2,4-difluoro-phenylamino)-benzoyl]-N-(4-hydroxy-butyl)-4-methyl-benzamide]
2	1	COCCNC(=O)c1ccc(C)c(C(=O)c2ccc(Nc3ccc(F)cc3C)cc2Cl)c1 [Compound 106, 3-[2-Chloro-4-(4-fluoro-2-methyl-phenylamino)benzoyl]-N-(2-methoxyethyl)-4-methylbenzamide]
0.5	0.2	CCOC(=O)CNC(=O)CNC(=O)c1ccc(C)c(C(=O)c2ccc(Nc3ccc(Cl)cc3F)cc2Cl)c1 [Compound 122, (2-{3-[2-Chloro-4-(4-chloro-2-fluoro-phenylamino)-benzoyl]-4-methyl-benzoylamino}-acetylamino)-acetic acid ethyl ester]
0.6	0.2	CCOC(=O)CNC(=O)c1ccc(C)c(C(=O)c2ccc(Nc3ccc(F)cc3F)cc2Cl)c1 [Compound 158, {3-[2-Chloro-4-(2,4-difluoro-phenylamino)-benzoyl]-4-methyl-benzoylamino}-acetic acid ethyl ester]
